Measured values published in patent US10934302B1, “SHP2 phosphatase inhibitors and methods of use thereof” (Relay Therapeutics, Inc., priority 2018, dated 2021).
pIC50: −log10 of the molar value.

test system: NCI—H23 (KRAS G12C mutant non-small cell lung cancer cells); assay: Combination growth inhibition (isobologram), NCI-H23; type: cell-based; details: ARS-1620 (KRAS G12C inhibitor) combined with a SHP2 inhibitor of the instant disclosure, FIG. 2B

| SMILES | growth inhibition (isobologram) |
| --- | --- |
| C=CC(=O)N1CCN(c2ncnc3c(F)c(-c4c(O)cccc4F)c(Cl)cc23)CC1 [ARS-1620] | synergistic growth inhibition |

test system: HuH-7 (hepatocellular carcinoma cells); assay: Combination growth inhibition (isobologram), HuH-7; type: cell-based; details: AZD-4547 (FGFR inhibitor) combined with a SHP2 inhibitor of the instant disclosure; HuH-7 cells; FIG. 3

| SMILES | growth inhibition (isobologram) |
| --- | --- |
| COc1cc(CCc2cc(NC(=O)c3ccc(N4CC(C)NC(C)C4)cc3)n[nH]2)cc(OC)c1 (centres unmarked) [AZD-4547] | synergistic growth inhibition |

biological target: SHP2 (Homo sapiens (Human), UniProt Q06124); assay: SHP2 allosteric inhibition assay (DiFMUP prompt fluorescence); type: biochemical; details: not given

| SMILES | pIC50 |
| --- | --- |
| Cc1ccc(C(=O)CSc2cnc(N3CCC4(CC3)Cc3ccccc3[C@H]4N)cn2)cc1 [Example 267, (S)-2-((5-(1-amino-1,3-dihydrospiro[indene-2,4′-piperidin]-1′-yl)pyrazin-2-yl)thio)-1-(p-tolyl)ethan-1-one] | > 7.30 |

same assay, conditions: 0.25 nM SHP2 activated with 0.5 μM peptide IRS1_pY1172(dPEG8)pY1222; substrate DiFMUP

| pIC50 | SMILES |
| --- | --- |
| ≥ 7.30 | N[C@@H]1c2ccccc2CC12CCN(c1nn3cc(C4CCCC4)nc3s1)CC2 [Example 252, (1S)-1′-{6-cyclopentylimidazo[2,1-b][1,3,4]thiadiazol-2-yl}-1,3-dihydrospiro[indene-2,4′-piperidin]-1-amine] |
| ≥ 7.30 | N[C@@H]1c2ccccc2CC12CCN(c1nc3[nH]nc(N4CCCCC4)c3nc1C1CC1)CC2 [Example 255, (3S)-1′-[5-cyclopropyl-3-(piperidin-1-yl)-1H-pyrazolo[3,4-b]pyrazin-6-yl]-1,3-dihydrospiro[indene-2,4′-piperidin]-3-amine] |
| ≥ 7.30 | N[C@@H]1c2ccccc2CC12CCN(c1cnc(C(=O)c3ccccc3)cn1)CC2 [Example 256, (S)-(5-(1-amino-1,3-dihydrospiro[indene-2,4′-piperidin]-1′-yl)pyrazin-2-yl)(phenyl)methanone] |
| ≥ 7.30 | C[C@@H](O)c1nc(Sc2ccnc(Cl)c2Cl)cnc1N1CCC2(CC1)Cc1ccccc1[C@H]2N [Example 259, (1R)-1-{3-[(3S)-3-amino-1,3-dihydrospiro[indene-2,4′-piperidin]-1′-yl]-6-[(2,3-dichloropyridin-4-yl)sulfanyl]pyrazin-2-yl}ethan-1-ol] |
| ≥ 7.30 | N[C@@H]1c2ccccc2CC12CCN(c1cnc(SCc3cccc(Cl)n3)cn1)CC2 [Example 263, (S)-1′-(5-(((6-chloropyridin-2-yl)methyl)thio)pyrazin-2-yl)-1,3-dihydrospiro[indene-2,4′-piperidin]-1-amine] |
| ≥ 7.30 | N[C@@H]1c2ccccc2CC12CCN(c1cnc(SCC3CCCC3)cn1)CC2 [Example 264, (S)-1′-(5-((cyclopentylmethyl)thio)pyrazin-2-yl)-1,3-dihydrospiro[indene-2,4′-piperidin]-1-amine] |
| ≥ 7.30 | Cc1nc(N2CCC3(CC2)Cc2c(F)cccc2[C@H]3N)c(CO)nc1-c1cccc(Cl)c1Cl [Example 269, (S)-(3-(1-amino-4-fluoro-1,3-dihydrospiro[indene-2,4′-piperidin]-1′-yl)-6-(2,3-dichlorophenyl)-5-methylpyrazin-2-yl)methanol] |
| 5.00 to 6.00 | Cc1cc(-c2nccs2)cc(N2CCC3(CC2)Cc2ccccc2[C@H]3N)n1 [Example 270, (S)-1′-(6-methyl-4-(thiazol-2-yl)pyridin-2-yl)-1,3-dihydrospiro[indene-2,4′-piperidin]-1-amine] |
| ≥ 7.30 | Cc1cc(N2CCC3(CC2)Cc2ccccc2[C@H]3N)cc(S(C)(=O)=O)c1 [Example 271, (S)-1′-(3-methyl-5-(methylsulfonyl)phenyl)-1,3-dihydrospiro[indene-2,4′-piperidin]-1-amine] |
| ≥ 7.30 | Cc1nc2c(N3CCCCC3)n[nH]c2nc1N1CCC2(CC1)Oc1cc(F)ccc1[C@H]2N [Example 278, (3R)-6-fluoro-1′-[5-methyl-3-(piperidin-1-yl)-1H-Pyrazolo[3,4-b]pyrazin-6-yl]-3H-spiro[1-benzofuran-2,4′-piperidin]-3-amine] |
| ≥ 7.30 | N[C@H]1c2ccccc2C[C@]12CC[C@H](c1ccc(Sc3ccnc(Cl)c3Cl)nc1)CC2 [Example 280, (1s,1′R,4S)-4-(6-((2,3-dichloropyridin-4-yl)thio)pyridin-3-yl)-1′,3′-dihydrospiro[cyclohexane-1,2′-inden]-1′-amine] |
| ≥ 7.30 | N[C@H]1c2ccccc2C[C@]12CC[C@@H](c1cnc(SCC3CC3)cn1)CC2 [Example 285, (1r, 4r)-4-{5-[(cyclopropylmethyl)sulfanyl]pyrazin-2-yl}-1′,3′-dihydrospiro[cyclohexane-1,2′-inden]-3′-amine] |
| ≥ 7.30 | COc1cccc(-n2ccc(C(=O)N3CCC4(CC3)Cc3ccccc3[C@H]4N)n2)c1 [Example 287, (1S)-1′-[1-(3-methoxyphenyl)-1H-pyrazole-3-carbonyl]-1,3-dihydrospiro[indene-2,4′-piperidin]-1-amine] |
| < 5.00 | COc1cccc(-n2nccc2C(=O)N2CCC3(CC2)Cc2ccccc2[C@H]3N)c1 [Example 288, (1S)-1′-[1-(3-methoxyphenyl)-1H-pyrazole-5-carbonyl]-1,3-dihydrospiro[indene-2,4′-piperidin]-1-amine] |
| ≥ 7.30 | Cc1cc(-c2cccnc2)c(C)c(N2CCC3(CC2)Cc2ccccc2[C@H]3N)n1 [Example 294, (3S)-1′-{3′,6′-dimethyl-[3,4′-bipyridin]-2′-yl}-1,3-dihydrospiro[indene-2,4′-piperidin]-3-amine] |

Further lines, the compound ahead of its results:

| SMILES | pIC50 |
| --- | --- |
| Cc1nc2c(N3CCCC3)n[nH]c2nc1N1CCC2(CC1)Cc1ccccc1[C@H]2N [Example 254, (1S)-1′-[5-methyl-3-(pyrrolidin-1-yl)-1H-pyrazolo[3,4-b]pyrazin-6-yl]-1,3-dihydrospiro[indene-2,4′-piperidin]-1-amine] | < 5.00 |
| Nc1nccc(Sc2ccc(N3CCC4(CC3)Cc3ccccc3[C@H]4N)c(CO)n2)c1Cl [Example 258, {3-[(3S)-3-amino-1,3-dihydrospiro[indene-2,4′-piperidin]-1′-yl]-6-[(2-amino-3-chloropyridin-4-yl)sulfanyl]pyridin-2-yl}methanol] | ≥ 7.30 |
| N[C@@H]1c2ccccc2CC12CCN(c1ncc(Sc3cccc(Cl)c3Cl)c(=O)[nH]1)CC2 [Example 261, 2-[(3S)-3-amino-1,3-dihydrospiro[indene-2,4′-piperidin]-1′-yl]-5-[(2,3-dichlorophenyl)sulfanyl]-3,4-dihydropyrimidin-4-one] | ≥ 7.30 |
| COc1nc(N2CCC3(CC2)Cc2ccccc2[C@H]3N)ncc1Sc1cccc(Cl)c1Cl [Example 262, (S)-1′-(5-((2,3-dichlorophenyl)thio)-4-methoxypyrimidin-2-yl)-1,3-dihydrospiro[indene-2,4′-piperidin]-1-amine] | 6.00 to 7.30 |
| N[C@@H]1c2ccccc2CC12CCN(c1cnc(SCCc3ccccc3)cn1)CC2 [Example 265, (S)-1′-(5-(phenethylthio)pyrazin-2-yl)-1,3-dihydrospiro[indene-2,4′-piperidin]-1-amine] | ≥ 7.30 |
| Cc1nc(N2CCC3(CC2)Oc2ccccc2[C@H]3N)c(CO)nc1-c1cccc(Cl)c1Cl [Example 268, (R)-(3-(3-amino-3H-spiro[benzofuran-2,4′-piperidin]-1′-yl)-6-(2,3-dichlorophenyl)-5-methylpyrazin-2-yl)methanol] | ≥ 7.30 |
| N[C@@H]1c2ccccc2OC12CCN(c1cnc(SCC3CC3)cn1)CC2 [Example 273, (R)-1′-(5-((cyclopropylmethyl)thio)pyrazin-2-yl)-3H-spiro[benzofuran-2,4′-piperidin]-3-amine] | ≥ 7.30 |
| N[C@@H]1c2ccccc2O[C@]12C[C@H]1CC[C@@H](C2)N1c1cnc(SCC2CC2)cn1 [Example 274, (1′R,2r,3R,5'S)-8′-(5-((cyclopropylmethyl)thio)pyrazin-2-yl)-3H-8′-azaspiro[benzofuran-2,3′-bicyclo[3.2.1]octan]-3-amine] | 5.00 to 6.00 |
| N[C@@H]1c2ccccc2C[C@]12CC[C@H](c1ccc(Sc3ccnc(Cl)c3Cl)nc1)CC2 [Example 279, (1s,3'S,4R)-4-{6-[(2,3-dichloropyridin-4-yl)sulfanyl]pyridin-3-yl}-1′,3′-dihydrospiro[cyclohexane-1,2′-inden]-3′-amine] | ≥ 7.30 |
| N[C@@H]1c2ccccc2CC12CCN(C(=O)c1csc(-c3c(Cl)cccc3Cl)n1)CC2 [Example 286, (1S)-1′-[2-(2,6-dichlorophenyl)-1,3-thiazole-4-carbonyl]-1,3-dihydrospiro[indene-2,4′-piperidin]-1-amine] | ≥ 7.30 |
| N[C@@H]1c2ccccc2CC12CCN(C(=O)c1ccccc1Oc1ccccc1)CC2 [Example 292, (3S)-1′-(2-phenoxybenzoyl)-1,3-dihydrospiro[indene-2,4′-piperidin]-3-amine] | < 5.00 |

test system: KYSE520; assay: Combination growth inhibition (isobologram), KYSE520; type: cell-based; details: erlotinib (EGFR inhibitor) combined with a SHP2 inhibitor of the instant disclosure; KYSE520 cells; FIG. 1A

| SMILES | growth inhibition (isobologram) |
| --- | --- |
| C#Cc1cccc(Nc2ncnc3cc(OCCOC)c(OCCOC)cc23)c1 [erlotinib] | synergistic growth inhibition |

test system: NCI—H3122 (non-small cell lung cancer cells); assay: Combination growth inhibition (isobologram), NCI-H3122; type: cell-based; details: crizotinib (ALK inhibitor) combined with a SHP2 inhibitor of the instant disclosure, FIG. 1B

| SMILES | growth inhibition (isobologram) |
| --- | --- |
| C[C@@H](Oc1cc(-c2cnn(C3CCNCC3)c2)cnc1N)c1c(Cl)ccc(F)c1Cl [crizotinib] | synergistic growth inhibition |

test system: NCI—N87 (gastric cancer cells); assay: Combination growth inhibition (isobologram), NCI-N87; type: cell-based; details: selumetinib (MEK inhibitor) combined with a SHP2 inhibitor of the instant disclosure, FIG. 2A

| SMILES | growth inhibition (isobologram) |
| --- | --- |
| Cn1cnc2c(F)c(Nc3ccc(Br)cc3Cl)c(C(=O)NOCCO)cc21 [selumetinib] | synergistic growth inhibition |
